Source: ChEMBL document CHEMBL1275548, “Interspecies recombination occurs frequently in quinolone resistance-determining regions of clinical isolates of Streptococcus pyogenes” (2008)

Test system: Streptococcus pyogenes
Assay: Antibacterial activity against Streptococcus pyogenes clinical isolate by agar dilution method

## O=C(O)c1cn(C2CC2)c2cc(N3CCNCC3)c(F)cc2c1=O [CIPROFLOXACIN]
  MIC: ≥ 2 µg/mL
